# From ChEMBL document CHEMBL1127111, “Synthesis of non reducible inhibitors for trypanothione reductase from Trypanosoma cruzi” (Bioorg Med Chem Lett, 1993)
# Active and inactive are the calls of the source. No cut-off for these calls is given here.
# Molecular target: Trypanothione reductase (Trypanosoma cruzi, UniProt P28593)
# Experiment: Compound was tested for inhibitory activity against recombinant Trypanothione reductase from Trypanosoma cruzi
# Sequence of Trypanothione reductase (P28593 whole entry): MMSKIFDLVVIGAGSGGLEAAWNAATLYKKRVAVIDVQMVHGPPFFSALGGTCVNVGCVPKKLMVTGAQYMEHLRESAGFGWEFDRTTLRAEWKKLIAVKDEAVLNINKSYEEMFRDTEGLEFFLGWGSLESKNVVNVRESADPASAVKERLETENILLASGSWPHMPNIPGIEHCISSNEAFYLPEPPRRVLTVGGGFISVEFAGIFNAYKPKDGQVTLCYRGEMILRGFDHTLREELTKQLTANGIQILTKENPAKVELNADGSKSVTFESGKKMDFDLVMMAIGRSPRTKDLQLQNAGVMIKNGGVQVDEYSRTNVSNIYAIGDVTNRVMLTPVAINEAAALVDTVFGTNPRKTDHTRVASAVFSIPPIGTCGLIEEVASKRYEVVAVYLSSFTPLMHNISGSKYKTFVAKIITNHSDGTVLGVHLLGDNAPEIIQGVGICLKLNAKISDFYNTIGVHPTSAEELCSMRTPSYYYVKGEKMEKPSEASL
row,Ki [µM],Compound
1,43,CN(C)CCCNC(=O)CNC(=O)C(CCSCC(NC(=O)OCc1ccccc1)C(=O)NCC(=O)NCCCN(C)C)NC(=O)OCc1ccccc1 (stereo unspecified)
2,92,CN(C)CCCNC(=O)CNC(=O)C(CSCC(NC(=O)OCc1ccccc1)C(=O)NCC(=O)NCCCN(C)C)NC(=O)OCc1ccccc1 (stereo unspecified)
3,31,CN(C)CCCNC(=O)CNC(=O)C(CSCSCC(NC(=O)OCc1ccccc1)C(=O)NCC(=O)NCCCN(C)C)NC(=O)OCc1ccccc1 (stereo unspecified)

# System: Glutathione reductase (Bos taurus)
# Experiment: Compound was tested for inhibitory activity against glutathione reductase from bovine intestinal mucosa; NI means no inhibition
row,Activity,Compound
1,inactive,CN(C)CCCNC(=O)CNC(=O)C(CCSCC(NC(=O)OCc1ccccc1)C(=O)NCC(=O)NCCCN(C)C)NC(=O)OCc1ccccc1 (stereo unspecified)
2,inactive,CN(C)CCCNC(=O)CNC(=O)C(CSCC(NC(=O)OCc1ccccc1)C(=O)NCC(=O)NCCCN(C)C)NC(=O)OCc1ccccc1 (stereo unspecified)
3,inactive,CN(C)CCCNC(=O)CNC(=O)C(CSCSCC(NC(=O)OCc1ccccc1)C(=O)NCC(=O)NCCCN(C)C)NC(=O)OCc1ccccc1 (stereo unspecified)
